Test results published in the NIST ThermoML archive (doi:10.1016/j.jct.2015.12.025).
Several values for one entry are separate records, joined by “and”; a condition that tells them apart may be missing. Identical values can stand only once.

Legend:
[1] = 102 kPa, Liquid, Vibrating tube method
[2] = refractive index (Na D-line) (dimensionless); settings: 102 kPa, Liquid, Standard Abbe refractometry
[3] = xn = mol fraction of the nth substance listed; settings: 102 kPa, Liquid, Vibrating tube method
[4] = refractive index (Na D-line) (dimensionless); xn = mol fraction of the nth substance listed; settings: 102 kPa, Liquid, Standard Abbe refractometry

C[Si]1(CCC(F)(F)F)O[Si](C)(CCC(F)(F)F)O[Si](C)(CCC(F)(F)F)O1 (stereo not drawn)
Settings	mass density, 308.15 K [kg/m3]	mass density, 313.15 K [kg/m3]	mass density, 318.15 K [kg/m3]	mass density, 323.15 K [kg/m3]	refractive index, 308.15 K	refractive index, 313.15 K	refractive index, 318.15 K	refractive index, 323.15 K
[1]	1236.63	1230.05	1223.55	1216.99	–	–	–	–
[2]	–	–	–	–	1.36011	1.35808	1.35609 and 1.35608	1.35407

C[Si]1(CCC(F)(F)F)O[Si](C)(CCC(F)(F)F)O[Si](C)(CCC(F)(F)F)O1 (stereo not drawn) + CC(C)(C)c1ccccc1
x1 = 1
Settings	mass density, 308.15 K [kg/m3]	mass density, 313.15 K [kg/m3]	mass density, 318.15 K [kg/m3]	mass density, 323.15 K [kg/m3]	refractive index, 308.15 K	refractive index, 313.15 K	refractive index, 318.15 K	refractive index, 323.15 K
[3]	1236.63	1230.05	1223.55	1216.99	–	–	–	–
[4]	–	–	–	–	1.36011	1.35808	1.35609	1.35407

CC(C)(C)c1ccccc1 [(1,1-dimethylethyl)benzene]
Settings	mass density, 298.15 K [kg/m3]	mass density, 308.15 K [kg/m3]	mass density, 313.15 K [kg/m3]	mass density, 318.15 K [kg/m3]	mass density, 323.15 K [kg/m3]	refractive index, 298.15 K	refractive index, 308.15 K	refractive index, 313.15 K	refractive index, 318.15 K	refractive index, 323.15 K
[1]	862.28	854.12	849.98	845.87	841.72	–	–	–	–	–
[2]	–	–	–	–	–	1.49009	1.48509	1.48256	1.48007	1.47754

COc1ccccc1 [anisole]
Settings	mass density, 298.15 K [kg/m3]	mass density, 308.15 K [kg/m3]	mass density, 313.15 K [kg/m3]	mass density, 318.15 K [kg/m3]	mass density, 323.15 K [kg/m3]	refractive index, 298.15 K	refractive index, 308.15 K	refractive index, 313.15 K	refractive index, 318.15 K	refractive index, 323.15 K
[1]	989.32	980.04	975.25	970.52	965.73	–	–	–	–	–
[2]	–	–	–	–	–	1.5146	1.50865	1.50604	1.50341	1.50073

COc1ccccc1 [anisole] + C[Si]1(CCC(F)(F)F)O[Si](C)(CCC(F)(F)F)O[Si](C)(CCC(F)(F)F)O1
x2 = 0
Settings	mass density, 308.15 K [kg/m3]	mass density, 313.15 K [kg/m3]	mass density, 318.15 K [kg/m3]	mass density, 323.15 K [kg/m3]	refractive index, 308.15 K	refractive index, 313.15 K	refractive index, 318.15 K	refractive index, 323.15 K
[3]	980.04	975.25	970.52	965.73	–	–	–	–
[4]	–	–	–	–	1.50865	1.50604	1.50341	1.50073

CCc1ccccc1 [ethylbenzene]
Settings	mass density, [1] [kg/m3]	refractive index, [2]
298.15 K	862.58	1.49301
303.15 K	–	1.4903
308.15 K	853.71	1.4876
313.15 K	849.29	1.48491
318.15 K	844.7	1.48217
323.15 K	840.28	1.47944

CCc1ccccc1 [ethylbenzene] + C[Si]1(CCC(F)(F)F)O[Si](C)(CCC(F)(F)F)O[Si](C)(CCC(F)(F)F)O1
x2 = 0
Settings	mass density, 308.15 K [kg/m3]	mass density, 313.15 K [kg/m3]	mass density, 318.15 K [kg/m3]	mass density, 323.15 K [kg/m3]	refractive index, 308.15 K	refractive index, 313.15 K	refractive index, 318.15 K	refractive index, 323.15 K
[3]	853.71	849.29	844.7	840.28	–	–	–	–
[4]	–	–	–	–	1.4876	1.48491	1.48217	1.47944

O=[N+]([O-])c1ccccc1 [nitrobenzene]
Settings	mass density, [1] [kg/m3]	refractive index, [2]
298.15 K	1198.2	1.54992
303.15 K	1193.25	1.54746
308.15 K	1188.17	1.545
313.15 K	1183.21	1.5425
318.15 K	1178.24	1.54005
323.15 K	1173.26	1.53757

O=[N+]([O-])c1ccccc1 [nitrobenzene] + C[Si]1(CCC(F)(F)F)O[Si](C)(CCC(F)(F)F)O[Si](C)(CCC(F)(F)F)O1
x2 = 0
Settings	mass density, 308.15 K [kg/m3]	mass density, 313.15 K [kg/m3]	mass density, 318.15 K [kg/m3]	mass density, 323.15 K [kg/m3]	refractive index, 308.15 K	refractive index, 313.15 K	refractive index, 318.15 K	refractive index, 323.15 K
[3]	1188.17	1183.21	1178.24	1173.26	–	–	–	–
[4]	–	–	–	–	1.545	1.5425	1.54005	1.53757
